Test system: MV-4-11 cells
Test: Gene expression microarray analysis (Affymetrix PrimeView) and GSEA
Type: cell-based, human
Set-up: RFU PODN (11730768_x_at) / Fold change /veh PODN (11730768_x_at) / RFU LINC00158 (11744669_a_at) / Fold change /veh LINC00158 (11744669_a_at) / RFU DUSP10 (11751237_a_at) / Fold change /veh DUSP10 (11751237_a_at) / RFU ID3 (11757404_x_at) / Fold change /veh ID3 (11757404_x_at) / RFU PLEKHG5 (11737974_s_at) / Fold change /veh PLEKHG5 (11737974_s_at) / RFU LRRC4B (11730491_at) / Fold change /veh LRRC4B (11730491_at) / RFU GIMAP4 (11747438_a_at) / Fold change /veh GIMAP4 (11747438_a_at) / RFU KRT8 (11758183_x_at) / Fold change /veh KRT8 (11758183_x_at) / RFU CNN1 (11734310_a_at) / Fold change /veh CNN1 (11734310_a_at) / RFU VPS37D (11726825_at) / Fold change /veh VPS37D (11726825_at) / RFU C10orf10 (11716522_x_at) / Fold change /veh C10orf10 (11716522_x_at) / RFU KIR2DL2 /// KIR2DL4 /// KIR2DL5A /// KIR2DL5B /// KIR2DS1 /// KIR2DS2 /// KIR2DS3 /// KIR2DS4 /// KIR3DL3 /// KIR3DL3 /// KIR3DS1 (11738374_at) / Fold change /veh KIR2DL2 /// KIR2DL4 /// KIR2DL5A /// KIR2DL5B /// KIR2DS1 /// KIR2DS2 /// KIR2DS3 /// KIR2DS4 /// KIR3DL3 /// KIR3DL3 /// KIR3DS1 (11738374_at) / RFU C1QL1 (11718748_at) / Fold change /veh C1QL1 (11718748_at) / RFU TMPRSS4 (11747572_a_at) / Fold change /veh TMPRSS4 (11747572_a_at) / RFU HAMP (11756126_x_at) / Fold change /veh HAMP (11756126_x_at) / RFU RNFT2 (11725882_a_at) / Fold change /veh RNFT2 (11725882_a_at) / RFU NR4A2 (11747474_a_at) / Fold change /veh NR4A2 (11747474_a_at) / RFU ABCC12 (11746883_a_at) / Fold change /veh ABCC12 (11746883_a_at) / RFU TMEM136 (11760407_x_at) / Fold change /veh TMEM136 (11760407_x_at) / RFU CLDN22 /// WWC2 (11732394_at) / Fold change /veh CLDN22 /// WWC2 (11732394_at) / RFU HLA-DPB1 (11760878_x_at) / Fold change /veh HLA-DPB1 (11760878_x_at) / RFU SPINT1 (11716480_a_at) / Fold change /veh SPINT1 (11716480_a_at) / RFU GAP43 (11754022_s_at) / Fold change /veh GAP43 (11754022_s_at) / RFU A4GNT (11735810_at) / Fold change /veh A4GNT (11735810_at) / RFU PRB3 (11715151_x_at) / Fold change /veh PRB3 (11715151_x_at) / RFU TUBB4B (11761932_at) / Fold change /veh TUBB4B (11761932_at) / RFU CAPN14 (11732068_a_at) / Fold change /veh CAPN14 (11732068_a_at) / RFU TMCC2 (11721928_a_at) / Fold change /veh TMCC2 (11721928_a_at) / RFU IRGQ (11745062_a_at) / Fold change /veh IRGQ (11745062_a_at) / RFU FAM174B (11720279_a_at) / Fold change /veh FAM174B (11720279_a_at) / RFU TMPRSS4 (11748680_a_at) / Fold change /veh TMPRSS4 (11748680_a_at) / RFU FAM212B (11763350_a_at) / Fold change /veh FAM212B (11763350_a_at) / RFU PLEKHG5 (11743358_a_at) / Fold change /veh PLEKHG5 (11743358_a_at) / RFU ZSCAN30 (11745921_a_at) / Fold change /veh ZSCAN30 (11745921_a_at) / RFU CMKLR1 (11741424_a_at) / Fold change /veh CMKLR1 (11741424_a_at) / RFU LOC101060620 /// MAPK8IP1 (11723275_at) / Fold change /veh LOC101060620 /// MAPK8IP1 (11723275_at) / RFU SPTSSB (11747773_x_at) / Fold change /veh SPTSSB (11747773_x_at) / RFU PRSS12 (11739890_at) / Fold change /veh PRSS12 (11739890_at) / RFU BIN1 (11741810_x_at) / Fold change /veh BIN1 (11741810_x_at) / RFU WNT11 (11732464_a_at) / Fold change /veh WNT11 (11732464_a_at) / RFU C10orf10 (11716521_a_at) / Fold change /veh C10orf10 (11716521_a_at) / RFU C5orf56 (11738089_at) / Fold change /veh C5orf56 (11738089_at) / RFU CYB561 (11721691_x_at) / Fold change /veh CYB561 (11721691_x_at) / RFU ANKRD19P (11752326_a_at) / Fold change /veh ANKRD19P (11752326_a_at) / RFU OR2T12 /// OR2T33 /// OR2T8 (11738714_s_at) / Fold change /veh OR2T12 /// OR2T33 /// OR2T8 (11738714_s_at) / RFU VCAN (11748164_a_at) / Fold change /veh VCAN (11748164_a_at) / RFU JSRP1 (11732532_at) / Fold change /veh JSRP1 (11732532_at) / RFU KRTAP10-11 (11738290_x_at) / Fold change /veh KRTAP10-11 (11738290_x_at) / RFU MYO3A (11730013_a_at) / Fold change /veh MYO3A (11730013_a_at) / RFU EBF3 (11725865_a_at) / Fold change /veh EBF3 (11725865_a_at) / RFU CAMK2N1 (11719241_x_at) / Fold change /veh CAMK2N1 (11719241_x_at) / RFU C5orf56 (11738088_a_at) / Fold change /veh C5orf56 (11738088_a_at) / RFU OLFML3 (11715873_a_at) / Fold change /veh OLFML3 (11715873_a_at) / RFU LOC100653217 /// NTM (11731650_a_at) / Fold change /veh LOC100653217 /// NTM (11731650_a_at) / RFU MAPK11 (11762145_a_at) / Fold change /veh MAPK11 (11762145_a_at) / RFU FIZ1 (11724087_x_at) / Fold change /veh FIZ1 (11724087_x_at) / RFU OASL (11726364_x_at) / Fold change /veh OASL (11726364_x_at) / RFU SOX15 (11748057_x_at) / Fold change /veh SOX15 (11748057_x_at) / RFU CD79A (11719716_a_at) / Fold change /veh CD79A (11719716_a_at) / RFU HIST1H1D (11736915_at) / Fold change /veh HIST1H1D (11736915_at) / RFU CASKIN2 (11723855_a_at) / Fold change /veh CASKIN2 (11723855_a_at) / RFU LOC730098 (11760151_x_at) / Fold change /veh LOC730098 (11760151_x_at) / RFU OR4N2 (11742367_at) / Fold change /veh OR4N2 (11742367_at) / RFU PRRT2 (11749266_a_at) / Fold change /veh PRRT2 (11749266_a_at) / RFU SNX32 (11753110_a_at) / Fold change /veh SNX32 (11753110_a_at) / RFU CDHR5 (11726645_a_at) / Fold change /veh CDHR5 (11726645_a_at) / RFU RCAN1 (11760418_a_at) / Fold change /veh RCAN1 (11760418_a_at) / RFU FAM167A (11723789_a_at) / Fold change /veh FAM167A (11723789_a_at) / RFU FAM26E (11764081_at) / Fold change /veh FAM26E (11764081_at) / RFU ISYNA1 (11749810_s_at) / Fold change /veh ISYNA1 (11749810_s_at) / RFU ACY1 (11761880_at) / Fold change /veh ACY1 (11761880_at) / RFU 11764098_at / Fold change /veh 11764098_at / RFU SAMD14 (11745864_x_at) / Fold change /veh SAMD14 (11745864_x_at) / RFU NPB (11741838_a_at) / Fold change /veh NPB (11741838_a_at) / RFU TMPRSS6 (11731388_a_at) / Fold change /veh TMPRSS6 (11731388_a_at) / RFU KRTAP10-2 (11738614_at) / Fold change /veh KRTAP10-2 (11738614_at) / RFU ARHGAP8 /// PRR5-ARHGAP8 (11727945_x_at) / Fold change /veh ARHGAP8 /// PRR5-ARHGAP8 (11727945_x_at) / RFU KRTAP5-7 /// NADSYN1 (11734609_at) / Fold change /veh KRTAP5-7 /// NADSYN1 (11734609_at) / RFU RASL12 (11751679_a_at) / Fold change /veh RASL12 (11751679_a_at) / RFU CDKN2B (11736163_a_at) / Fold change /veh CDKN2B (11736163_a_at) / RFU PRF1 (11729649_at) / Fold change /veh PRF1 (11729649_at) / RFU, ZNF638 /// ZNF638-IT1 / Fold change vs veh, ZNF638 /// ZNF638-IT1 / RFU, PANK3 / Fold change vs veh, PANK3 / RFU, SH3YL1 / Fold change vs veh, SH3YL1 / RFU, ZEB2 / Fold change vs veh, ZEB2 / RFU, NRIP1 / Fold change vs veh, NRIP1 / RFU, PTTG1IP / Fold change vs veh, PTTG1IP / RFU, CAPN2 / Fold change vs veh, CAPN2 / RFU, MED14 / Fold change vs veh, MED14 / RFU, SNORA58 / Fold change vs veh, SNORA58 / RFU, C1orf63 / Fold change vs veh, C1orf63 / RFU, LRRFIP1 / Fold change vs veh, LRRFIP1 / RFU, NDUFAF7 / Fold change vs veh, NDUFAF7 / RFU, SLC12A2 / Fold change vs veh, SLC12A2 / RFU, IBTK / Fold change vs veh, IBTK / RFU, ESF1 / Fold change vs veh, ESF1 / Fold change vs veh, TMEM50B / RFU, TAOK1 / Fold change vs veh, TAOK1 / RFU, ACBD3 / Fold change vs veh, ACBD3 / RFU, TMA16 / Fold change vs veh, TMA16 / RFU, RWDD3 / Fold change vs veh, RWDD3 / RFU, BCAT1 / Fold change vs veh, BCAT1 / RFU, EDEM3 / Fold change vs veh, EDEM3 / RFU, TMEM33 / Fold change vs veh, TMEM33 / RFU, WDR75 / Fold change vs veh, WDR75 / RFU, AHCTF1 / Fold change vs veh, AHCTF1 / RFU, TFRC / Fold change vs veh, TFRC / RFU, ZDHHC17 / Fold change vs veh, ZDHHC17 / RFU, NOM1 / Fold change vs veh, NOM1 / RFU, ARL8B / Fold change vs veh, ARL8B / RFU, ZBTB11 / Fold change vs veh, ZBTB11 / RFU, TAMM41 / Fold change vs veh, TAMM41 / RFU, KIAA1704 /// LOC100996395 / Fold change vs veh, KIAA1704 /// LOC100996395 / RFU, ING1 / Fold change vs veh, ING1 / RFU, TRMT61B / Fold change vs veh, TRMT61B / RFU, FUBP3 / Fold change vs veh, FUBP3 / RFU, TP53 / Fold change vs veh, TP53 / RFU, TNKS2 / Fold change vs veh, TNKS2 / RFU, ZFP14 / Fold change vs veh, ZFP14 / RFU, ACTR2 / Fold change vs veh, ACTR2 / RFU, PPP3R1 / Fold change vs veh, PPP3R1 / RFU, PIK3R1 / Fold change vs veh, PIK3R1 / RFU, HNRNPA1 / Fold change vs veh, HNRNPA1 / RFU, RNF170 / Fold change vs veh, RNF170 / RFU, ZNF28 / Fold change vs veh, ZNF28 / RFU, RNGTT / Fold change vs veh, RNGTT / RFU, OGT / Fold change vs veh, OGT / RFU, BRD1 / Fold change vs veh, BRD1 / RFU, MARS / Fold change vs veh, MARS / RFU, ZNF655 / Fold change vs veh, ZNF655 / RFU, FAHD1 / Fold change vs veh, FAHD1 / RFU, BDP1 / Fold change vs veh, BDP1 / RFU, LRRCC1 / Fold change vs veh, LRRCC1 / RFU, ARID1A / Fold change vs veh, ARID1A / RFU, ZNF146 / Fold change vs veh, ZNF146 / RFU, ZNF330 / Fold change vs veh, ZNF330 / RFU, GPN3 / Fold change vs veh, GPN3 / RFU, C9orf123 / Fold change vs veh, C9orf123 / RFU, N4BP2L2 / Fold change vs veh, N4BP2L2 / RFU, ARFIP1 / Fold change vs veh, ARFIP1 / RFU, FAM179B / Fold change vs veh, FAM179B / RFU, BCL10 / Fold change vs veh, BCL10 / RFU, UHRF1BP1L / Fold change vs veh, UHRF1BP1L / RFU, BET1 / Fold change vs veh, BET1 / RFU, CNOT2 / Fold change vs veh, CNOT2 / RFU, ZNF268 / Fold change vs veh, ZNF268 / Fold change vs veh, ZNF507 / RFU, DGCR2 / Fold change vs veh, DGCR2 / RFU, WDSUB1 / Fold change vs veh, WDSUB1 / Fold change vs veh, HSP90B1 /// MIR3652 / RFU, ADSS / Fold change vs veh, ADSS / RFU, GK / Fold change vs veh, GK / RFU, ZNF148 / Fold change vs veh, ZNF148 / RFU, TAF9 / Fold change vs veh, TAF9 / RFU, SLC1A5 / Fold change vs veh, SLC1A5 / RFU, SLMO2 / Fold change vs veh, SLMO2 / RFU, ABCC4 / Fold change vs veh, ABCC4 / RFU, LOC101060439 /// RAP1B / Fold change vs veh, LOC101060439 /// RAP1B / RFU, RFX7 / Fold change vs veh, RFX7 / RFU, GTPBP10 / Fold change vs veh, GTPBP10 / RFU, CNEP1R1 / Fold change vs veh, CNEP1R1 / RFU, BIVM-ERCC5 /// ERCC5 / Fold change vs veh, BIVM-ERCC5 /// ERCC5 / RFU, ILF3 / Fold change vs veh, ILF3 / RFU 11762660_at / Fold change /veh 11762660_at / RFU VCAN (11757783_s_at) / Fold change /veh VCAN (11757783_s_at) / RFU DDX43 (11728927_at) / Fold change /veh DDX43 (11728927_at) / RFU KRT8 (11758188_x_at) / Fold change /veh KRT8 (11758188_x_at) / RFU NKD1 (11759106_at) / Fold change /veh NKD1 (11759106_at) / RFU SRD5A1 (11742802_a_at) / Fold change /veh SRD5A1 (11742802_a_at) / RFU TPSAB1 /// TPSB2 (11721975_s_at) / Fold change /veh TPSAB1 /// TPSB2 (11721975_s_at) / RFU GSTM3 (11746129_a_at) / Fold change /veh GSTM3 (11746129_a_at) / RFU IL23R (11737362_x_at) / Fold change /veh IL23R (11737362_x_at) / RFU TMEM51 (11727254_a_at) / Fold change /veh TMEM51 (11727254_a_at) / RFU PIWIL2 (11732686_x_at) / Fold change /veh PIWIL2 (11732686_x_at) / RFU ORM1 (11744905_x_at) / Fold change /veh ORM1 (11744905_x_at) / RFU CCDC152 (11743942_at) / Fold change /veh CCDC152 (11743942_at) / RFU ECM1 (11717891_a_at) / Fold change /veh ECM1 (11717891_a_at) / RFU IL23R (11748794_a_at) / Fold change /veh IL23R (11748794_a_at) / RFU TNFAIP8L3 (11732012_x_at) / Fold change /veh TNFAIP8L3 (11732012_x_at) / RFU MBOAT4 (11741988_at) / Fold change /veh MBOAT4 (11741988_at) / RFU 11764193_at / Fold change /veh 11764193_at / RFU TMEM53 (11763286_at) / Fold change /veh TMEM53 (11763286_at) / RFU MAGEB2 (11727129_at) / Fold change /veh MAGEB2 (11727129_at) / RFU TMEM200A (11744735_a_at) / Fold change /veh TMEM200A (11744735_a_at) / RFU CCDC152 (11751479_a_at) / Fold change /veh CCDC152 (11751479_a_at) / RFU FAM211A (11726209_a_at) / Fold change /veh FAM211A (11726209_a_at) / RFU RGS16 (11746705_a_at) / Fold change /veh RGS16 (11746705_a_at) / RFU VCAN (11755009_s_at) / Fold change /veh VCAN (11755009_s_at) / RFU RHOB (11743442_s_at) / Fold change /veh RHOB (11743442_s_at) / RFU RGS16 (11720943_a_at) / Fold change /veh RGS16 (11720943_a_at) / RFU RGS16 (11720944_at) / Fold change /veh RGS16 (11720944_at) / RFU, VPS4B / Fold change vs veh, VPS4B / RFU, CREB1 / Fold change vs veh, CREB1 / RFU, DNAJC13 / Fold change vs veh, DNAJC13 / RFU, GNAQ / Fold change vs veh, GNAQ / RFU, CDK5R1 / Fold change vs veh, CDK5R1 / RFU, ZRANB3 / Fold change vs veh, ZRANB3 / RFU, CUL4A / Fold change vs veh, CUL4A / RFU, CCNY / Fold change vs veh, CCNY / RFU, UFL1 / Fold change vs veh, UFL1 / RFU, COG3 / Fold change vs veh, COG3 / RFU, DIAPH2 / Fold change vs veh, DIAPH2 / RFU, SKA2 / Fold change vs veh, SKA2 / RFU, AFF3 / Fold change vs veh, AFF3 / RFU, LMF1 / Fold change vs veh, LMF1 / RFU, IPO11 / Fold change vs veh, IPO11 / RFU, DFFB / Fold change vs veh, DFFB / RFU, FOXP1 / Fold change vs veh, FOXP1 / RFU, CARD8 / Fold change vs veh, CARD8 / RFU, STRN3 / Fold change vs veh, STRN3 / RFU, ADK / Fold change vs veh, ADK / RFU, RASSF2 / Fold change vs veh, RASSF2 / RFU, WIPF1 / Fold change vs veh, WIPF1 / RFU, LARP1B / Fold change vs veh, LARP1B / RFU, RASA1 / Fold change vs veh, RASA1 / RFU, RB1 / Fold change vs veh, RB1 / RFU, PPFIA1 / Fold change vs veh, PPFIA1 / RFU, MAT2A / Fold change vs veh, MAT2A / RFU, CCT5 / Fold change vs veh, CCT5 / RFU, WDR92 / Fold change vs veh, WDR92 / RFU, CUX1 / Fold change vs veh, CUX1 / RFU, TTC7A / Fold change vs veh, TTC7A / RFU, TMEM135 / Fold change vs veh, TMEM135 / RFU, DEPTOR / Fold change vs veh, DEPTOR / RFU, CPM / Fold change vs veh, CPM / RFU, DNAJB6 / Fold change vs veh, DNAJB6 / RFU, CACNA2D3 / Fold change vs veh, CACNA2D3 / RFU, DTX4 / Fold change vs veh, DTX4 / RFU, TFCP2 / Fold change vs veh, TFCP2 / RFU, GMCL1 /// GMCL1P1 / Fold change vs veh, GMCL1 /// GMCL1P1 / RFU, AEBP2 / Fold change vs veh, AEBP2 / RFU, SNHG1 /// SNORD22 /// SNORD25 /// SNORD26 /// SNORD27 /// SNORD28 /// SNORD29 /// SNORD31 / Fold change vs veh, SNHG1 /// SNORD22 /// SNORD25 /// SNORD26 /// SNORD27 /// SNORD28 /// SNORD29 /// SNORD31 / Fold change (Aza/veh), C12orf56 (ProbeSet 11735607_a_at) / Fold change (ACY-1035/veh), C12orf56 (ProbeSet 11735607_a_at) / Fold change (Aza/veh), FGFR1OP (ProbeSet 11751329_s_at) / Fold change (ACY-1035/veh), FGFR1OP (ProbeSet 11751329_s_at) / Fold change (Aza/veh), VPS36 (ProbeSet 11739960_a_at) / Fold change (ACY-1035/veh), VPS36 (ProbeSet 11739960_a_at) / RFU SYPL1 (11715823_x_at) / Fold change /veh SYPL1 (11715823_x_at) / RFU IGFBP7 (11715501_s_at) / Fold change /veh IGFBP7 (11715501_s_at) / RFU REEP3 (11722064_at) / Fold change /veh REEP3 (11722064_at) / RFU IGLL1 (11728026_x_at) / Fold change /veh IGLL1 (11728026_x_at): dose or concentration left out as unconfirmed
Conditions: ProbeSet 11741070_a_at; LIST B

## Nc1ncn([C@@H]2O[C@H](CO)[C@@H](O)[C@H]2O)c(=O)n1 [azacitidine]
  RFU, ZNF146: 2051.58 RFU

From PMC5218480 (PLoS ONE, 2017)
